Measured values as given in patent US20050064462A1, “Methods, compositions, and kits for predicting the effect of compounds on hot flash symptoms” (priority 2003, published 2005).
Entries after “also recorded” stand apart in the source; their conditions may differ.

Key:
[1] = tested on: Annexin 1; experiment: Differential gene expression in a cell following contact with reference compounds: Annexin 1; format: cell-based; conditions: accession AI171962; cell expressing estrogen receptor or estrogen related receptor, after contact with compound
Source text: (§1) The expression of any gene known by one of skill in the art to be associated with hot flash symptoms, without limitation, can be assessed in the methods of the invention. The present invention provides numerous such genes as described in detail, below. Further, additional genes that are associated with hot flash symptoms can readily be identified by one of skill in the art according to the disclosure of the present invention. For example, a cell that expresses the estrogen receptor or estrogen related receptor can be contacted with a reference compound known to affect hot flash symptoms. The overall expression of genes in the cell following contact with the reference compound can be compared to the overall expression of genes in a similar cell that has not been contacted with the reference compound.
(§2) The expression of such genes to identify genes that are differentially expressed following contact with a compound with a known effect on hot flash symptoms can be monitored by any convenient method known by one of skill in the art. Most advantageously, the expression of many genes, e.g., thousands of genes, is monitored at once using a high throughput method for assessing expression of genes in the presence and absence of compounds known to affect hot flash symptoms. […]

[2] = tested on: N27; experiment: Differential gene expression in a cell following contact with reference compounds: N27; format: cell-based; conditions: accession AI014169; cell expressing estrogen receptor or estrogen related receptor, after contact with compound
Source text: as §1, §2

[3] = tested on: Protein Tyrosine Phosphatase BAD2; experiment: Differential gene expression in a cell following contact with reference compounds: BAD2; format: cell-based; conditions: accession U02553; cell expressing estrogen receptor or estrogen related receptor, after contact with compound
Source text: as §1, §2

[4] = tested on: HMG-box containing protein 1; experiment: Differential gene expression in a cell following contact with reference compounds: HBP1; format: cell-based; conditions: accession U09551; cell expressing estrogen receptor or estrogen related receptor, after contact with compound
Source text: as §1, §2

[5] = tested on: Type II Hexokinase; experiment: Differential gene expression in a cell following contact with reference compounds: Type II Hexokinase; format: cell-based; conditions: accession D26393; cell expressing estrogen receptor or estrogen related receptor, after contact with compound
Source text: as §1, §2

[6] = tested on: Protein Kinase C type I; experiment: Differential gene expression in a cell following contact with reference compounds: Protein Kinase C type I; format: cell-based; conditions: accession M13707; cell expressing estrogen receptor or estrogen related receptor, after contact with compound
Source text: as §1, §2

[7] = tested on: D-binding protein; experiment: Differential gene expression in a cell following contact with reference compounds: D-binding protein; format: cell-based; conditions: accession J03179; cell expressing estrogen receptor or estrogen related receptor, after contact with compound
Source text: as §1, §2

[8] = tested on: hot flash symptoms; conditions: cited from earlier work
[9] = tested on: FE65 adaptor protein interacting with beta-amyloid precursor protein intracellular domain; experiment: Differential gene expression in a cell following contact with reference compounds: FE65; format: cell-based; conditions: accession X60469; cell expressing estrogen receptor or estrogen related receptor, after contact with compound
Source text: as §1, §2

[10] = tested on: Calpain; experiment: Differential gene expression in a cell following contact with reference compounds: Calpain; format: cell-based; conditions: accession D14478; cell expressing estrogen receptor or estrogen related receptor, after contact with compound
Source text: as §1, §2

[11] = tested on: Argininosuccinate Synthetase; experiment: Differential gene expression in a cell following contact with reference compounds: Argininosuccinate Synthetase; format: cell-based; conditions: accession X12459; cell expressing estrogen receptor or estrogen related receptor, after contact with compound
Source text: as §1, §2

[12] = tested on: Multi Drug Resistance Gene; experiment: Differential gene expression in a cell following contact with reference compounds: Multi Drug Resistance Gene; format: cell-based; conditions: accession M81855; cell expressing estrogen receptor or estrogen related receptor, after contact with compound
Source text: as §1, §2

[13] = tested on: EST208064; experiment: Differential gene expression in a cell following contact with reference compounds: EST208064; format: cell-based; conditions: accession AI013389; cell expressing estrogen receptor or estrogen related receptor, after contact with compound
Source text: as §1, §2

[14] = tested on: Ribonucleoside Reductase Nuclear Receptor; experiment: Differential gene expression in a cell following contact with reference compounds: RNR-1; format: cell-based; conditions: accession L08595; cell expressing estrogen receptor or estrogen related receptor, after contact with compound
Source text: as §1, §2

[15] = tested on: Parvalbumin; experiment: Differential gene expression in a cell following contact with reference compounds: Parvalbumin; format: cell-based; conditions: accession AF022935; cell expressing estrogen receptor or estrogen related receptor, after contact with compound
Source text: as §1, §2

[16] = tested on: EST196325; experiment: Differential gene expression in a cell following contact with reference compounds: EST196325; format: cell-based; conditions: accession AA892522; cell expressing estrogen receptor or estrogen related receptor, after contact with compound
Source text: as §1, §2

[17] = tested on: Interleukin-1 β-converting enzyme-related protease CPP32; experiment: Differential gene expression in a cell following contact with reference compounds: CPP32; format: cell-based; conditions: accession U84410; cell expressing estrogen receptor or estrogen related receptor, after contact with compound
Source text: as §1, §2

[18] = tested on: ARL gene 4; experiment: Differential gene expression in a cell following contact with reference compounds: ARL gene 4; format: cell-based; conditions: accession X77235; cell expressing estrogen receptor or estrogen related receptor, after contact with compound
Source text: as §1, §2

[19] = tested on: Interleukin-18; experiment: Differential gene expression in a cell following contact with reference compounds: Interleukin-18; format: cell-based; conditions: accession AJ222813; cell expressing estrogen receptor or estrogen related receptor, after contact with compound
Source text: as §1, §2

[20] = tested on: 2-alpha-1 globin; experiment: Differential gene expression in a cell following contact with reference compounds: 2-alpha-1 globin; format: cell-based; conditions: accession X56325; cell expressing estrogen receptor or estrogen related receptor, after contact with compound
Source text: as §1, §2

[21] = tested on: Prolactin; experiment: Differential gene expression in a cell following contact with reference compounds: Prolactin; format: cell-based; conditions: accession AI175539; cell expressing estrogen receptor or estrogen related receptor, after contact with compound
Source text: as §1, §2

[22] = tested on: Activin Beta E; experiment: Differential gene expression in a cell following contact with reference compounds: Activin Beta E; format: cell-based; conditions: accession AF089825; cell expressing estrogen receptor or estrogen related receptor, after contact with compound
Source text: as §1, §2

4-hydroxy tamoxifen
Effect on Expression of Annexin 1 (EST 21795) [1]: Upregulated
Effect on Expression of N27 (EST 207724) [2]: Upregulated
Effect on Expression of Protein Tyrosine Phosphatase BAD2 [3]: downregulation
Effect on Expression of HMG-box containing protein 1 (HBP1) [4]: Upregulated
Effect on Expression of Type II Hexokinase (HKII) [5]: downregulation
Effect on Expression of Protein Kinase C type I (PKC type I) [6]: Upregulated
Effect on Expression of D-binding protein [7]: Upregulated
known effect on the incidence of hot flash symptoms ([8]; when administered to a subject): increasing effect on hot flash symptoms; also recorded: increase the incidence of hot flash symptoms

O=C(c1ccc(OCCN2CCCCC2)cc1)c1c(-c2ccc(O)cc2)sc2cc(O)ccc12 [Raloxifene, raloxifene]
Effect on Expression of Annexin 1 (EST 21795) [1]: Upregulated
Effect on Expression of N27 (EST 207724) [2]: Upregulated
Effect on Expression of HMG-box containing protein 1 (HBP1) [4]: Upregulated
Effect on Expression of Protein Kinase C type I (PKC type I) [6]: Upregulated
Effect on Expression of FE65 adaptor protein interacting with beta-amyloid precursor protein intracellular domain (FE65) [9]: Upregulated
Effect on Expression of D-binding protein [7]: Upregulated
subjects experiencing hot flash symptoms of sufficient severity to discontinue therapy ([8]; administered in the treatment of osteoporosis): approximately 11%

C#C[C@]1(O)CC[C@H]2[C@@H]3[C@H](C)CC4=C(CCC(=O)C4)[C@H]3CC[C@@]21C [Tibolone, tibolone]
Effect on Expression of Calpain [10]: Upregulated
Effect on Expression of Argininosuccinate Synthetase [11]: Upregulated
Effect on Expression of Multi Drug Resistance Gene (MDR) [12]: Upregulated
Effect on Expression of EST208064 [13]: Upregulated
Effect on Expression of Ribonucleoside Reductase Nuclear Receptor (RNR-1) [14]: Upregulated
Effect on Expression of Parvalbumin [15]: Upregulated
Effect on Expression of EST196325 [16]: Upregulated
Effect on Expression of Interleukin-1 β-converting enzyme-related protease CPP32 [17]: Upregulated
Effect on Expression of ARL gene 4 [18]: Upregulated
Effect on Expression of Protein Tyrosine Phosphatase BAD2 [3]: Upregulated
Effect on Expression of Interleukin-18 (IL-18) [19]: Upregulated
Effect on Expression of 2-alpha-1 globin [20]: Upregulated
Effect on Expression of Type II Hexokinase (HKII) [5]: Upregulated
Effect on Expression of Prolactin [21]: Upregulated
Effect on Expression of Activin Beta E [22]: Upregulated
